Measurements published in patent US9234006B2, “Compounds” (Novacta Biosystems Limited, priority 2011, dated 2016).

Columns and labels:
E. coli ATCC700928 = assay: MIC susceptibility testing, broth microdilution in CaMHB; assay type: cell-based, Escherichia coli; details: Table 4A, different batches of cation-adjusted Muller-Hinton broth
How it was run: (§1)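 Cation-adjusted Mueller-Hinton broth microdilution, run in duplicate. Inoculum from overnight 37 °C cultures subcultured to OD600 0.2-0.3 […], then diluted 100-fold. Different CaMHB batches from the earlier data set.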

E. coli NCTC12900 = assay: as above; assay type: cell-based, Escherichia coli; details: Table 4A, different batches of cation-adjusted Muller-Hinton broth
How it was run: as §1

E. coli NCTC9001 = assay: as above; assay type: cell-based, Escherichia coli; details: Table 4A, different batches of cation-adjusted Muller-Hinton broth
How it was run: as §1

E. coli ATCC25922 = assay: as above; assay type: cell-based, Escherichia coli; details: Table 4A, different batches of cation-adjusted Muller-Hinton broth
How it was run: as §1

A. baumannii NCTC7844 = assay: as above; assay type: cell-based, Acinetobacter baumannii; details: Table 4A, different batches of cation-adjusted Muller-Hinton broth
How it was run: as §1

A. baumannii ATCCBAA-747 = assay: as above; assay type: cell-based, Acinetobacter baumannii; details: Table 4A, different batches of cation-adjusted Muller-Hinton broth
How it was run: as §1

A. baumannii NCTC13423 = assay: as above; assay type: cell-based, Acinetobacter baumannii; details: Table 4A, different batches of cation-adjusted Muller-Hinton broth
How it was run: as §1

P. aeruginosa ATCC27853 = assay: as above; assay type: cell-based, Pseudomonas aeruginosa; details: Table 4A, different batches of cation-adjusted Muller-Hinton broth
How it was run: as §1

P. aeruginosa ATCC 9721 = assay: as above; assay type: cell-based, Pseudomonas aeruginosa; details: P. aeruginosa ATCC9721; Table 4A, different batches of cation-adjusted Muller-Hinton broth
How it was run: as §1

[1] = test system: P. aeruginosa ATCCCRM-9027; assay: as above; assay type: cell-based, Pseudomonas aeruginosa; details: P. aeruginosa AATCCRM 9027; Table 4A, different batches of cation-adjusted Muller-Hinton broth
How it was run: as §1

P. aeruginosa ATCC10145 = assay: as above; assay type: cell-based, Pseudomonas aeruginosa; details: Table 4A, different batches of cation-adjusted Muller-Hinton broth
How it was run: as §1

HK-2 cell line = details: 24 h incubation, resazurin reduction; Table 7A; footnote c: solubility issues noted at top concentration
Experimental: The renal cell toxicity of the compounds was assessed in an in vitro assay using the HK-2 cell line, an immortalized proximal tubule cell line derived from a normal human kidney. The endpoint to describe the toxicity of the compounds was the reduction of resazurin correlating with the metabolic activity of the cells.
Cells were cultured in 150 cm^2 flasks in 25 mL supplemented KSF (with 5 ng/mL EGF and 50 μg/mL BPE). Cells were maintained at 70% confluence with a maximum of 25 passages. Day 1: Media was removed and cells were washed with 10 ml DPBS. […] After 1 to 2 minutes incubation, 14 ml media was added to the flask to inactivate the trypsin. The cell suspension was transferred to a centrifuge tube and the cells pelleted at 1000 rpm for 6 minutes. The cell pellet was then resuspended in fresh media supplemented with EGF and BPE. […] 7500 cells were dispensed in each well in a volume of 160 μl and incubated at 37° C. for 24 h.
Day 2: Test compounds were prepared directly into the media. […] The microtiter plates were removed from the incubator and the media replaced with 100 μl of the dilutions of the compound solution. Every set of concentration was done in triplicate, and positive and negative controls were added to each plate. The plates were then incubated for 24 h at 37° C. with 5% CO2 in a humidified atmosphere.
Day 3: The reagent containing the resazurin (CellTiter-Blue, Promega) was diluted in PBS (1:4) and added at 20% (v/v) to each well. The plates were then incubated at 37° C. for 2 h before the fluorescent reduction product was detected.
Media only background values were subtracted before the data was analysed using GraphPad Prism. Compound concentration values were plotted as log values to enable a dose-response curve to be fitted and IC50 values determined (Table 7).
The renal cell toxicity of the additional example compounds was assessed in an in vitro assay using the HK-2 cell as described in the example above.

[2] = test system: Klebsiella pneumoniae ATCC10031; assay type: in vivo; details: neutropenic mice, thigh, K. pneumoniae ATCC10031, total daily dosage 10 mg/Kg; Table 5B
Experimental: Groups of 5 female specific-pathogen-free CD-1 mice weighing 22±2 g were used. The animals were made neutropenic by intraperitoneal administration of cyclophosphamide on days −4 (150 mg/kg) and −1 (100 mg/kg). […] Examples 2, 4, 5, 6, 7, 8, 10, 11 and polymyxin B were prepared in Normal Saline at 2 mg/mL and the solution was adjusted to pH 6-7 by addition of 0.1M H2SO4 or 4.2% NaHCO3 as required. Twenty-four hours after infection, the mice were euthanized humanely. The muscle of the right thigh of each animal was harvested, homogenized, serially diluted and plated on Brain Heart Infusion agar+0.5% charcoal (w/v) for CFU determination. Decrease of the total CFU of right thigh as compared to control counts at 24 hrs post-infection was determined for each dose group. […] Using the same procedure as described above, the in vivo efficacy of three compounds of the invention (Examples 2,6, and 14) was evaluated in a mouse thigh infection model of Klebsiella pneumoniae ATCC10031, using Colistin (Polymyxin E) as comparator.

K. pneumoniae ATCC 4352 = assay: MIC susceptibility testing, broth microdilution in CaMHB; assay type: cell-based, Klebsiella pneumoniae; details: K. pneumoniae ATCC4352; Table 4A, different batches of cation-adjusted Muller-Hinton broth
How it was run: as §1

K. pneumoniae NCTC8172 = assay: as above; assay type: cell-based, Klebsiella pneumoniae; details: Table 4A, different batches of cation-adjusted Muller-Hinton broth
How it was run: as §1

K. pneumoniae NCTC7427 = assay: as above; assay type: cell-based, Klebsiella pneumoniae; details: Table 4A, different batches of cation-adjusted Muller-Hinton broth
How it was run: as §1

[3] = test system: K. pneumoniae clinical isolates and resistant strains; assay type: cell-based; details: K. pneumoniae
Experimental: (§2) The in vitro antibacterial activities of the compounds of examples 2 and 6 were evaluated against a panel of […] Gram-negative bacterial isolates alongside Colistin. The panel consisted of 100 clinical isolates of each of A. baumannii, E. coli, K. pneumoniae and P. aeruginosa. The panel represented the current epidemiology in Europe and the USA and included a number of relevant strains with defined resistant phenotypes to current clinically-used antibacterial agents. These resistant strains included 20 A. baumannii, 22 E. coli, 25 K. pneumoniae and 20 P. aeruginosa strains.
(§3) All compounds were tested up to a maximum concentration of 64 μg/mL with the exception of colistin, which was evaluated up to a maximum concentration of 16 μg/mL.

[4] = test system: A. baumannii clinical isolates and resistant strains; assay type: cell-based; details: A. baumannii
Experimental: as §2, §3

[5] = test system: P. aeruginosa clinical isolates and resistant strains; assay type: cell-based; details: P. aeruginosa
Experimental: as §2, §3

[6] = test system: E. coli clinical isolates and resistant strains; assay type: cell-based; details: E. coli
Experimental: as §2, §3

With Colistin [reference compound] the MIC (E. coli ATCC700928) was 0.25 micrograms/mL, the MIC (E. coli NCTC12900) was 0.5 micrograms/mL and the MIC (E. coli NCTC9001) was 2 micrograms/mL. The MIC (E. coli ATCC25922) was 1 micrograms/mL, the MIC (A. baumannii NCTC7844) was 0.125 micrograms/mL and the MIC (A. baumannii ATCCBAA-747) was 0.25 micrograms/mL. For the same substance, the MIC (A. baumannii NCTC13423) was under 0.06 micrograms/mL, the MIC (P. aeruginosa ATCC27853) was 0.5 micrograms/mL and the MIC (P. aeruginosa ATCC 9721) was 0.5 micrograms/mL. The MIC [1] was 0.5 micrograms/mL, the MIC (P. aeruginosa ATCC10145) was 0.5 micrograms/mL and the “IC50 HK-2 cells” value (HK-2 cell line) was 28^a μg/mL. The “Mean log10 CFU reduction vs. control” value [2] was 2.60 log10 CFU, the MIC (K. pneumoniae ATCC 4352) was 0.125 micrograms/mL and the MIC (K. pneumoniae NCTC8172) was 0.5 micrograms/mL. The MIC (K. pneumoniae NCTC7427) was 0.25 micrograms/mL, the “MIC50 Clinical isolates” value ([3]; clinical isolates) was 2 mg/L and the “MIC90 Clinical isolates” value ([3]; clinical isolates) was 4 mg/L. For the same substance, the “MIC Range Clinical isolates” value ([3]; clinical isolates) was 1 to 16 mg/L, the “MIC50 Resistant strains” value ([3]; resistant strains) was 2 mg/L and the “MIC90 Resistant strains” value ([3]; resistant strains) was 8 mg/L. The “MIC50 Clinical isolates” value ([4]; clinical isolates) was 2 mg/L, the “MIC90 Clinical isolates” value ([4]; clinical isolates) was 2 mg/L and the “MIC Range Clinical isolates” value ([4]; clinical isolates) was 0.5 to 4 mg/L. The “MIC50 Resistant strains” value ([4]; resistant strains) was 2 mg/L, the “MIC90 Resistant strains” value ([4]; resistant strains) was 2 mg/L and the “MIC Range Resistant strains” value ([4]; resistant strains) was 1 to 4 mg/L. For the same substance, the “MIC50 Clinical isolates” value ([5]; clinical isolates) was 2 mg/L, the “MIC90 Clinical isolates” value ([5]; clinical isolates) was 4 mg/L and the “MIC Range Clinical isolates” value ([5]; clinical isolates) was 0.25 to 4 mg/L. For the same substance, the “MIC50 Resistant strains” value ([5]; resistant strains) was 2 mg/L, the “MIC90 Resistant strains” value ([5]; resistant strains) was 2 mg/L and the “MIC Range Resistant strains” value ([5]; resistant strains) was 0.5 to 2 mg/L. The “MIC50 Clinical isolates” value ([6]; clinical isolates) was 2 mg/L, the “MIC90 Clinical isolates” value ([6]; clinical isolates) was 2 mg/L and the “MIC Range Clinical isolates” value ([6]; clinical isolates) was 0.5 to 4 mg/L. For the same substance, the “MIC50 Resistant strains” value ([6]; resistant strains) was 1 mg/L, the “MIC90 Resistant strains” value ([6]; resistant strains) was 1 mg/L and the “MIC Range Resistant strains” value ([6]; resistant strains) was 0.25 to 2 mg/L.
